{"source": "patent US8927532B2", "about": "“Therapeutic agent and diagnostic agent for mitochondrial dysfunction brain diseases” (SBI Pharmaceuticals Co., Ltd., priority 2007, dated 2015)", "test_system": "middle cerebral artery-occluded model rats", "assay": "Fluorescence observation of brain disease site in cerebral infarction model rats", "type": "in vivo, rat", "details": "100 mg/kg i.p., 4 hours after administration", "procedure": "After 6 hours, 12 hours, 24 hours, and 42 hours from the preparation of middle cerebral artery-occluded model rats, δ-aminolevulinic acid hydrochloride was dissolved in physiological saline and intraperitoneally administered to the individual model rats in an amount of 100 mg/kg-body weight of rat. […] Moreover, it was confirmed that the red light site was in a cerebral infarction state.", "data": [{"smiles": "Cl.NCC(=O)CCC(=O)O", "note": "[δ-aminolevulinic acid hydrochloride]", "values": [{"measurement": "metabolism to protoporphyrin IX in the brain", "value": "metabolized and converted into protoporphyrin IX"}]}]}
